In patent publication US9650389B2, “8-oxoprotoberberine derivative or pharmaceutically acceptable salt thereof, preparation method therefor and pharmaceutical composition for preventing or treating diseases associated with activity of NFAT5, containing same as active ingredient” (Korea Research Institute of Chemical Technology, priority 2013, dated 2017):

What was measured:
[1] = biological target: T1, COX1 (Ovis aries, UniProt P05979); test: COX inhibition, COX assay kit (Table 4); assay type: biochemical
T1 construct: purchased Cayman Co. 760111
T1 sequence (P05979 25-600): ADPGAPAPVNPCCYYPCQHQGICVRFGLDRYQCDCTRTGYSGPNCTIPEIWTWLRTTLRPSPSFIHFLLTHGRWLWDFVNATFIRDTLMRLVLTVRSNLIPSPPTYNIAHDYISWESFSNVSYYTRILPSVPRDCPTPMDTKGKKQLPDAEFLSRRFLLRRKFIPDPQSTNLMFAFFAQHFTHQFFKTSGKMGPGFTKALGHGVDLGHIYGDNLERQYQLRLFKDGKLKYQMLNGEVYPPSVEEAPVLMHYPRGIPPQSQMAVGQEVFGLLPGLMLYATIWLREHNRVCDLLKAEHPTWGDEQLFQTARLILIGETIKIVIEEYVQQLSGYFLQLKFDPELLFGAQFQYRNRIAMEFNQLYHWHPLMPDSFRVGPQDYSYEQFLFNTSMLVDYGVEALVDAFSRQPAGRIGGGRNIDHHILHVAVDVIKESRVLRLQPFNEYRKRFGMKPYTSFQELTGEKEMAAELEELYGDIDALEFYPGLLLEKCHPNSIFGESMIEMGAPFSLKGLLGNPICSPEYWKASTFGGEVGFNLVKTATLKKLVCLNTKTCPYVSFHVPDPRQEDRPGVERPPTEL
Procedure: (§1) 10 μl of substrate and 10 μl of arachidonic acid were added thereto, followed by reaction for 10 minutes in the darkness. Then, OD590 was measured.

[2] = biological target: T2, COX2 (Ovis aries, UniProt P79208); test: COX inhibition, COX assay kit (Table 5); assay type: biochemical
T2 construct: purchased Cayman Co. 760111
T2 sequence (P79208 17-603): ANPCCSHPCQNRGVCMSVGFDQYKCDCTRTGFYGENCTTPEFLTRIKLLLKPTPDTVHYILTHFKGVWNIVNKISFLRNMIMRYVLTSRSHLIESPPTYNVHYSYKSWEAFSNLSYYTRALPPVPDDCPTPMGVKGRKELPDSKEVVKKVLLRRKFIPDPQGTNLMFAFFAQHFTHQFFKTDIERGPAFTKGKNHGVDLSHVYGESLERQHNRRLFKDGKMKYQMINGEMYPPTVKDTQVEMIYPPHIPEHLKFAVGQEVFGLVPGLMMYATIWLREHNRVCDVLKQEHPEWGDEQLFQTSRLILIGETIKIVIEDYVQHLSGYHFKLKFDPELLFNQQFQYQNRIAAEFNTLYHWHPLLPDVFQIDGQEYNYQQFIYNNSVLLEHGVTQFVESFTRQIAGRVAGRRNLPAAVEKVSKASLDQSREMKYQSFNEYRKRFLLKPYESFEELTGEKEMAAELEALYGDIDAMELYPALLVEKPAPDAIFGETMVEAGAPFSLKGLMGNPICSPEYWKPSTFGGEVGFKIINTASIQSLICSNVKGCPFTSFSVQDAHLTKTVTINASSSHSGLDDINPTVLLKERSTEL
Procedure: as §1

[3] = tested on: iNOS; test: Inhibition of LPS-induced iNOS induction in Raw264.7 cells (Griess reagent); assay type: cell-based; details: Mus musculus, Raw264.7, LPS 100 ng/ml, 24 hours, read-out: Inhibition rate of iNOS induction (%)
Procedure: To investigate whether or not the derivative of the present invention could inhibit iNOS inducement, Raw264.7 cells (mouse macrophages) were distributed in a 384-well plate at the density of 3×10^4 cells/well. The cells were treated with LPS at the concentration of 100 ng/ml, followed by culture at 37° C. for 24 hours. The concentration of […] increased in the medium was measured by using Griess reagent. The inhibition rate was calculated by mathematical formula based on the detected signals. The results are shown in Table 2. % inhibition=(mean value of sample−mean value of negative control)/(mean value of positive control −mean value of negative control)×100 [Mathematical Formula 1]

[4] = biological target: T3, NFAT5 (Mus musculus, UniProt Q9WV30); test: NFAT5 reporter screening (GFP, HCS) in LPS-treated Raw264.7 cells; assay type: cell-based; details: for Inhibition rate of NFAT5 transcription (%): Raw264.7 reporter, LPS 1 μg/ml, 48 hours; for inhibiting NFAT5 activity (in words): Table 3 and FIG. 1
T3 construct: endogenous in cells; host or cells: RAW264.7
T3 sequence (Q9WV30 whole entry): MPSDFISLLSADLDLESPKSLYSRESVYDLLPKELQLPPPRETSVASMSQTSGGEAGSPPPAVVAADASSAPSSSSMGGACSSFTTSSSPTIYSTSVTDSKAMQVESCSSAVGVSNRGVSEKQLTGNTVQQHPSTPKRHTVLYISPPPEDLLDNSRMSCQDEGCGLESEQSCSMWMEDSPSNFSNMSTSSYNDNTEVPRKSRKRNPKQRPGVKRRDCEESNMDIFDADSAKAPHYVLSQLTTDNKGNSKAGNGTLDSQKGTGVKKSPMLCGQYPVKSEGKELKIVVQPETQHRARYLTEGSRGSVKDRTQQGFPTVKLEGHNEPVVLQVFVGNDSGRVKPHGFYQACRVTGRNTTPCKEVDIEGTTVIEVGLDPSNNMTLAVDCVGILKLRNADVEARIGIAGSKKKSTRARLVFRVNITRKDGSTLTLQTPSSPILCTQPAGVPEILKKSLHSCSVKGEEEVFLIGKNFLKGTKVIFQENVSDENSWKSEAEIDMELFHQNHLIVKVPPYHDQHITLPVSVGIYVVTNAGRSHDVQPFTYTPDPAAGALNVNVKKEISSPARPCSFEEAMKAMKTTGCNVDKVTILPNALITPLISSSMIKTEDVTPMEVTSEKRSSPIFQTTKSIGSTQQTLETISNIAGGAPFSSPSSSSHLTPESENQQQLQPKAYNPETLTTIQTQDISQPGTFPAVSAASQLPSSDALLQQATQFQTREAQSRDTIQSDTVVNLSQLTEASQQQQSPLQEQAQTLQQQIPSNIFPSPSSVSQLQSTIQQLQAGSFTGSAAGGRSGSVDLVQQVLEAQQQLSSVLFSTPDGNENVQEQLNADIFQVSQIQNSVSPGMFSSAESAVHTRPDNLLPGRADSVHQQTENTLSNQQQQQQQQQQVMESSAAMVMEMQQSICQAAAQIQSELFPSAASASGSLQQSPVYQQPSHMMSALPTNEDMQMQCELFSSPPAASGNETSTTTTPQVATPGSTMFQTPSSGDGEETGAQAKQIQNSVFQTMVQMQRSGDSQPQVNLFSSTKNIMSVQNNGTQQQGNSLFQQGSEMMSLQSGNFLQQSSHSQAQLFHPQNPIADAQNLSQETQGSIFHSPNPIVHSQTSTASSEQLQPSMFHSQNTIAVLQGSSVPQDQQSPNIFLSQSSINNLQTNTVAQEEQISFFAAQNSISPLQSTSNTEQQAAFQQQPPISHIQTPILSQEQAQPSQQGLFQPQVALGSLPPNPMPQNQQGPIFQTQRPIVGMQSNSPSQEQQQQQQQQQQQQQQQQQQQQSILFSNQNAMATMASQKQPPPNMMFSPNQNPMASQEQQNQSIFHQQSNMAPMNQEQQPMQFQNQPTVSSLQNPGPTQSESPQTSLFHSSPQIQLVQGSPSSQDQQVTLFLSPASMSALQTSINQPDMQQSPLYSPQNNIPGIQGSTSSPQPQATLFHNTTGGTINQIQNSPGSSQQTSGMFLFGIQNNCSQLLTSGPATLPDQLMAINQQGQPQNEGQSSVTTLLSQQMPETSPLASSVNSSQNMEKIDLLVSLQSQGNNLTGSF
Procedure: To investigate whether or not the derivative of the present invention could inhibit the transcriptional activity of NFAT5, NFAT5 reporter screening was performed. A plasmid vector was constructed by eliminating CMV promoter sequence from the backbone and inserting NFAT5 binding site sequence ([…]) instead. Raw264.7 cells transfected with the vector were cultured in 10% FBS-PRMI (supplemented with 500 μg/ml G418). The cells were distributed in a 96-well plate at the density of 3×10^3 cells/well, followed by further culture for one more day. The cells were treated with LPS at the concentration of 1 μg/ml for 48 hours. Then, the cells were fixed and the expression level of GFP was measured by HCS fluorescence image (Thermo, ArrayScan^VTI).

[5] = Cytotoxicity test (WST-8), VERO; assay type: cell-based; details: African green monkey, VERO kidney cells
Procedure: (§2) To investigate the cytotoxicity of the derivative of the present invention, 5 kinds of cell lines (VERO: African green monkey kidney cell line, HFL-1: human embryonic lung cell line, L929: NCTC clone 929, mouse fibroblast cell line, NIH 3T3: mouse embryonic fibroblast cell line, and CHO-K1: Chinese hamster ovary cell line) were distributed in a 96-well plate at the density of 1×10^4 cells/well, which were treated with the compound of the present invention for 24 hours. The water-soluble tetrazolium salt WST-8 was added thereto. The orange colored formazan dye degraded by dehydrogenase in the live cells was read, followed by nonlinear regression to determine 50% growth inhibition concentration.

[6] = Cytotoxicity test (WST-8), L929; assay type: cell-based; details: mouse, L929 fibroblast cells (NCTC clone 929); L929, 24 hours
Procedure: as §2

[7] = Cytotoxicity test (WST-8), HFL-1; assay type: cell-based; details: human, HFL-1 embryonic lung cells; HFL-1, 24 hours
Procedure: as §2

[8] = Cytotoxicity test (WST-8), NIH 3T3; assay type: cell-based; details: mouse, NIH 3T3 embryonic fibroblast cells; NIN3T3, 24 hours
Procedure: as §2

[9] = Cytotoxicity test (WST-8), CHO-K1; assay type: cell-based; details: Chinese hamster, CHO-K1 ovary cells; CHO-K1, 24 hours
Procedure: as §2

[10] = Metabolic stability in rat liver microsomes; assay type: in vitro ADME; details: rat liver microsome fractions, 30 minutes
Procedure: (§3) Particularly, each compound was added to rat and human liver microsome fractions, followed by culture for 30 minutes. Each compound was administered via intravenous injection (iv) and oral-administration (po) to rat at the concentration of 5 mg/kg, followed by making pharmacokinetic profiles.

[11] = Metabolic stability in human liver microsomes; assay type: in vitro ADME; details: human liver microsome fractions, 30 minutes
Procedure: as §3

[12] = tested on: NFATc; test: NFAT (NFATc) transcriptional activity, THP1-XBlue-MD2-CD14 cells, SEAP; assay type: cell-based; details: LPS 1 μg/ml, 24 hours, FIG. 2B
Procedure: To evaluate the transcriptional activity of NFAT, THP1-XBlue-MD2-CD14 cells were cultured in 10% FBS-RPMI (supplemented with 200 μg/ml of Zeocin and 250 μg/ml of G418). First, the cells were distributed in a 96-well plate at the density of 2×10^4 cells/well, followed by culture. 1 μg/ml of LPS and the compound of the invention were added thereto, followed by culture for 24 hours. 20 μl of the supernatant was added with 180 μl of secreted embryonic alkaline phosphatase (SEAP) detection medium, followed by culture for 2 hours. Then, OD655 was measured.

[13] = Conc. 0.16 μM, two values per substance
[14] = Conc. 0.16 μM, two values per substance, read-out: inhibition rate
[15] = Conc. 0.8 μM, two values per substance
[16] = Conc. 0.8 μM, two values per substance, read-out: inhibition rate
[17] = Conc. 4 μM, two values per substance
[18] = Conc. 4 μM, two values per substance, read-out: inhibition rate
[19] = Conc. 20 μM, two values per substance
[20] = Conc. 20 μM, two values per substance, read-out: inhibition rate
[21] = Conc. 100 μM, two values per substance
[22] = Conc. 100 μM, two values per substance, read-out: inhibition rate

Structure (SMILES): COc1ccc2cc3[n+](cc2c1OC)CCc1cc2c(cc1-3)OCO2 [Berberine]
- inhibition rate [1, 13]: 5.4
- inhibition at 0.16 µM [1, 14]: 3.3%
- inhibition rate [1, 15]: 13.4
- inhibition at 0.8 µM [1, 16]: 12.4%
- inhibition rate [1, 17]: 20.4
- inhibition at 4 µM [1, 18]: 18.4%
- inhibition rate [1, 19]: 31.4
- inhibition at 20 µM [1, 20]: 24.4%
- inhibition rate [1, 21]: 51.5
- inhibition at 100 µM [1, 22]: 53.5%
- IC50 ([1]; Table 4): 96.3 µM
- inhibition at 0.032 µM ([2]; Conc. 0.032 μM, two values per substance, read-out: inhibition rate): 0%
- inhibition rate [2, 13]: 7.9
- inhibition at 0.16 µM [2, 14]: 8.8%
- inhibition rate [2, 15]: 19.8
- inhibition at 0.8 µM [2, 16]: 17.2%
- inhibition rate [2, 17]: 29.9
- inhibition at 4 µM [2, 18]: 28.2%
- inhibition rate [2, 19]: 39.3
- inhibition at 20 µM [2, 20]: 41%
- inhibition rate [2, 21]: 53.7
- inhibition at 100 µM [2, 22]: 50.3%
- IC50 ([2]; Table 5): 58.4 µM

Structure (SMILES): COc1ccc2c(Cc3ccccn3)c3n(c(=O)c2c1OC)CCc1cc2c(cc1-3)OCO2 [Example 6, 9,10-dimethoxy-13-(pyridine-2-ylmethyl)-5,6-dihydro-[1,3]dioxolo[4,5-g]isoquinolino [3,2-a]isoquinoline-8(6H)-one]
- inhibition at 1 µM [3]: 7.2%
- inhibition at 10 µM [3]: 115%
- Inhibition rate of NFAT5 transcription (%) ([4]; 1 μM): 9.9%
- Inhibition rate of NFAT5 transcription (%) ([4]; 10 μM): 67.9%
- inhibiting NFAT5 activity (in words) [4]: remarkably excellent in inhibiting NFAT5 activity
- GI50 at 24 h [5]: > 100 µM
- GI50 at 24 h [6]: > 100 µM
- GI50 at 24 h [7]: > 100 µM
- GI50 at 24 h [8]: > 100 µM
- GI50 at 24 h [9]: > 100 µM

Structure (SMILES): O=C1CC2(CCCC2)CC(=O)N1CCCCN1CCN(c2ncccn2)CC1 [buspirione, reference compound]
- remaining compound, Rat (%) [10]: 0.82 ± 0.16%
- remaining compound, Human (%) [11]: 3.88 ± 0.24%

Structure (SMILES): COc1ccc2c(Cc3c(F)cccc3F)c3n(c(=O)c2c1OC)CCc1cc2c(cc1-3)OCO2 [Example 3, 13-(2,6-difluorobenzyl)-9,10-dimethoxy-5H-[1,3]dioxolo[4,5-g]isoquinolino[3,2-a]isoquinoline-8(6H)-one]
- inhibition at 1 µM [3]: 74.1%
- inhibition at 10 µM [3]: 113%
- Inhibition rate of NFAT5 transcription (%) ([4]; 1 μM): 24.6%
- Inhibition rate of NFAT5 transcription (%) ([4]; 10 μM): 108.8%
- inhibiting NFAT5 activity (in words) [4]: remarkably excellent in inhibiting NFAT5 activity
- inhibition of NFAT promoter / transcriptional activity (in words) [12]: slightly
- GI50 at 24 h [5]: 84.9 µM
- GI50 at 24 h [6]: 47.7 µM
- GI50 at 24 h [7]: 32.8 µM
- GI50 at 24 h [8]: 10.2 µM
- GI50 at 24 h [9]: 16.7 µM
- remaining compound, Rat (%) [10]: 18.5 ± 5.2%
- remaining compound, Human (%) [11]: 63.7 ± 2.4%
